Columns and labels:
Dopamine receptor = assay: Compound was evaluated for the competitive binding with [3H]spiperone binding to Canine striatal membranes.; parameters: species or system Canis lupus familiaris
[1] = molecular target: Dopamine receptor (Homo sapiens) (UniProt P14416+P35462+P21918+P21917+P21728); assay: Compound was evaluated at 100 uM concentration to displace [3H]spiperone and result indicates the percent displacement.; type: protein assay; details: Canis lupus familiaris

For `Oc1ccc2c(c1O)-c1cccc3c1[C@@H](C2)N(CCCl)CC3`, the IC50 app (Dopamine receptor) was 8 µM and the Displacement [1] was 70%.
